Source: ChEMBL document CHEMBL1909046, “DrugMatrix in vitro pharmacology data”

Key:
[1] = DRUGMATRIX: Nicotinic Acetylcholine radioligand binding (ligand: [125I] Epibatidine); assay type: cell membranes, Membrane; conditions: imr-32; Not Active = under 50% inhibition at 10 µM
Insulin receptor = Insulin receptor (Rattus norvegicus, UniProt P15127); assay type: cell membranes, Wistar, Liver, Membrane; further: in other assays of this panel Not Active means under 50% inhibition at 10 µM
Adenosine receptor A3 = target: T1, Adenosine receptor A3 (Homo sapiens, UniProt P0DMS8); assay type: cell membranes, CHO-K1, Membrane; conditions: for Ki: read-out: Ki;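 on all read-outs here: radioligand binding assay with AB-MECA serving as the labeled ligand; in other assays of this panel Not Active means under 50% inhibition at 10 µM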
T1 sequence (P0DMS8 whole entry): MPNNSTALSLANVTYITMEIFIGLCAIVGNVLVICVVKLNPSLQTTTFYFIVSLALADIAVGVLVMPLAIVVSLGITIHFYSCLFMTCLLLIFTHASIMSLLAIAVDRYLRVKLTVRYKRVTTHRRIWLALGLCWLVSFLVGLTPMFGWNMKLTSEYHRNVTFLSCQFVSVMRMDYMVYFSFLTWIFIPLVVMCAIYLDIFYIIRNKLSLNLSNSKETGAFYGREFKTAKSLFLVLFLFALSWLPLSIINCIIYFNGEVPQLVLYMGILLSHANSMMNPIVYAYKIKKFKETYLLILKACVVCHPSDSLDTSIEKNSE

Adenosine receptor A1 = target: T2, Adenosine receptor A1 (Homo sapiens, UniProt P30542); assay type: cell membranes, CHO, Membrane; conditions: cho;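 further: radioligand binding assay at the adenosine A1 receptor, with DPCPX serving as the labelled ligand; in other assays of this panel Not Active means under 50% inhibition at 10 µM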
T2 sequence (P30542 whole entry): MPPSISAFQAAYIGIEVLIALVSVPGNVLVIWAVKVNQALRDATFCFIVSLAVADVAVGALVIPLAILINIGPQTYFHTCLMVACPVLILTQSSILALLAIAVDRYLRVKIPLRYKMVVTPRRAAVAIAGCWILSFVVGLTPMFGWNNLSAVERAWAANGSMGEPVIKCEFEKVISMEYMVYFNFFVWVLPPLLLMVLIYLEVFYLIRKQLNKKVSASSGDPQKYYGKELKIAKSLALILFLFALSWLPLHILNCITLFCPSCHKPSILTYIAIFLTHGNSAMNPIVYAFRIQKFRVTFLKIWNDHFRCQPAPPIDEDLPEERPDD

[2] = target: T3, Muscarinic acetylcholine receptor M5 (Homo sapiens, UniProt P08912); assay type: cell membranes, CHO-K1, Membrane; conditions: for Ki: read-out: Ki; on all read-outs here: in other assays of this panel Not Active means under 50% inhibition at 10 µM
T3 sequence (P08912 whole entry): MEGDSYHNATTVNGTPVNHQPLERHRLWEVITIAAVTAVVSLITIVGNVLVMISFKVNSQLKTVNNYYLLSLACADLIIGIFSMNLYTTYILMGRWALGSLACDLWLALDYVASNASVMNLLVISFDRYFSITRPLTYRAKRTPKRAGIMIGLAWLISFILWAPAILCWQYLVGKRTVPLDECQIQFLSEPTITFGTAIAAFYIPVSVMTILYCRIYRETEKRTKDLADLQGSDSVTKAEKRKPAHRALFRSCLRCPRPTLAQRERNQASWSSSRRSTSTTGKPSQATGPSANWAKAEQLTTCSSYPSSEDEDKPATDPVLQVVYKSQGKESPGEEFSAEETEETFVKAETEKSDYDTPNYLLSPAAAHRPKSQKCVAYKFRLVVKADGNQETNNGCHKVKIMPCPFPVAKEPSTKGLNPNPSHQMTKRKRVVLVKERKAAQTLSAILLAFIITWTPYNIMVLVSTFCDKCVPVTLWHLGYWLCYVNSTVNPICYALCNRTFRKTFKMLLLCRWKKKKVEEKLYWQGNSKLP

Sequence of Insulin receptor (P15127 27-759 limits assumed): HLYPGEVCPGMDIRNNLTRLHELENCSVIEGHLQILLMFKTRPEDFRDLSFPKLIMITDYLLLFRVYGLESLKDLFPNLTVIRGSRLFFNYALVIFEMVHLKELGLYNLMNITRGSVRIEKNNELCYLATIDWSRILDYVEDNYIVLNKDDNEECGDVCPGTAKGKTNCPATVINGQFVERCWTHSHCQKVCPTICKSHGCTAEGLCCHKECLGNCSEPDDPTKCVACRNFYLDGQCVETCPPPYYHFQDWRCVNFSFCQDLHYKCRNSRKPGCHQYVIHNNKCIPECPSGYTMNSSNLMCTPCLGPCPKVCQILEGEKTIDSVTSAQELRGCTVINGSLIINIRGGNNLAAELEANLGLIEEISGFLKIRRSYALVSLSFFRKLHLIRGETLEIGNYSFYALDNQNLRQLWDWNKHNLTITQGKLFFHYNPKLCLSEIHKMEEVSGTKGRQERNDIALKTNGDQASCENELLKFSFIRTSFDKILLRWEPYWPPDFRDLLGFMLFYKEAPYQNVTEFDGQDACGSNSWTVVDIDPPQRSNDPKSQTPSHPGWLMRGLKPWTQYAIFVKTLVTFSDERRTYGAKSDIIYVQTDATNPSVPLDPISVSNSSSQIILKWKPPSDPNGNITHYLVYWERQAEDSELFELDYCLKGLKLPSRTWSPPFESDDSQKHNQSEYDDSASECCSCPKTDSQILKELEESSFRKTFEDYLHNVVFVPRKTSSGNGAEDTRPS
Sequence of Insulin receptor (P15127 764-1383 limits assumed): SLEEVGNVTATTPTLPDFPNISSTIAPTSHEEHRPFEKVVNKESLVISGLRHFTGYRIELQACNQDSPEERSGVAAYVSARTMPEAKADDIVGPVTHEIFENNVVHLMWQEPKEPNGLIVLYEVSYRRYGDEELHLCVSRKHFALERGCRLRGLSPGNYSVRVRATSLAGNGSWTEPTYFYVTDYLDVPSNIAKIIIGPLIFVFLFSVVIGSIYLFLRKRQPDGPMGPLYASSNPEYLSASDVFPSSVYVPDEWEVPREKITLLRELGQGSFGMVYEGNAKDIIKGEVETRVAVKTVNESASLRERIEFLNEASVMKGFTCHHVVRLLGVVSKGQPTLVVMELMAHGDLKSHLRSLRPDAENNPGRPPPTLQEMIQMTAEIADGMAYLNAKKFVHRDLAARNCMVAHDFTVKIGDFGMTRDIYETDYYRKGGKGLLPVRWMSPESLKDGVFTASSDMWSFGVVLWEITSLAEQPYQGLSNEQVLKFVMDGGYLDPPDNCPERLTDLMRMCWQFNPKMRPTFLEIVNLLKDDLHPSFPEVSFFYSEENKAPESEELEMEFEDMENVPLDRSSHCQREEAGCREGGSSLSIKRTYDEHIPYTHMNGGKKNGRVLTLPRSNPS

Compound	IC50 [1]	Ki [1]	IC50 (Insulin receptor)	IC50 (Adenosine receptor A3; cho-k1)	IC50 (Adenosine receptor A1)	IC50 ([2]; read-out: IC50) [nM]	Ki [2] [nM]	IC50 ([2]; cho-k1)	IC50 (Adenosine receptor A3; read-out: IC50) [nM]	Ki (Adenosine receptor A3) [nM]
CN(C)CC[C@@H](c1ccc(Cl)cc1)c1ccccn1 [DEXCHLORPHENIRAMINE]	Not Active	Not Active	Not Active	Not Active	Not Active	1040	749	–	–	–
C[C@@H]1CC[C@@]2(OC1)O[C@H]1[C@@H](O)[C@H]3[C@@H]4CC[C@H]5C[C@@H](O[C@@H]6O[C@H](CO)[C@H](O[C@@H]7O[C@H](CO)C(O)[C@H](O[C@@H]8OC[C@@H](O)[C@H](O)[C@H]8O)[C@H]7O[C@@H]7O[C@H](CO)[C@H](O)[C@H](O[C@@H]8O[C@H](CO)[C@@H](O)[C@H](O)[C@H]8O)[C@H]7O)[C@H](O)[C@H]6O)[C@H](O)C[C@]5(C)[C@H]4CC[C@]3(C)[C@H]1[C@@H]2C (stereo partly drawn) [DIGITONIN]	Not Active	Not Active	Not Active	Not Active	Not Active	–	–	Not Active	–	–
OC(CCCN1CCCCC1)(c1ccccc1)c1ccccc1 [DIPHENIDOL]	Not Active	Not Active	Not Active	Not Active	Not Active	1190	855	–	–	–
C[C@H]1O[C@@H](n2cc(F)c(=O)[nH]c2=O)[C@H](O)[C@@H]1O [DOXIFLURIDINE]	Not Active	Not Active	Not Active	Not Active	Not Active	–	–	Not Active	–	–
Cn1c(=O)c2c(ncn2CC(O)CO)n(C)c1=O (stereo not drawn) [DYPHYLLINE]	Not Active	Not Active	Not Active	Not Active	Not Active	–	–	Not Active	–	–
CC[C@H]1CN2CCc3cc(OC)c(OC)cc3[C@@H]2C[C@@H]1C[C@H]1NCCc2cc(OC)c(OC)cc21 [EMETINE]	Not Active	Not Active	Not Active	Not Active	Not Active	–	–	Not Active	–	–
C[C@@H](CO)NC(=O)[C@@H]1C=C2c3cccc4[nH]cc(c34)C[C@H]2N(C)C1 [ERGONOVINE]	Not Active	Not Active	Not Active	Not Active	Not Active	–	–	Not Active	–	–
COC(=O)CCc1ccc(OCC(O)CNC(C)C)cc1 (stereo not drawn) [ESMOLOL]	Not Active	Not Active	Not Active	Not Active	Not Active	–	–	Not Active	–	–
CCC1(C)CC(=O)NC1=O (stereo not drawn) [ETHOSUXIMIDE]	Not Active	Not Active	Not Active	Not Active	Not Active	–	–	Not Active	–	–
C#C[C@]1(OC(C)=O)CC[C@H]2[C@@H]3CCC4=C[C@@H](OC(C)=O)CC[C@@H]4[C@H]3CC[C@@]21C [ETHYNODIOL DIACETATE]	Not Active	Not Active	Not Active	Not Active	Not Active	–	–	Not Active	–	–
COc1cc([C@@H]2c3cc4c(cc3[C@@H](O[C@@H]3O[C@@H]5CO[C@@H](C)O[C@H]5[C@H](O)[C@H]3O)[C@H]3COC(=O)[C@H]23)OCO4)cc(OC)c1O [ETOPOSIDE]	Not Active	Not Active	Not Active	Not Active	Not Active	–	–	Not Active	–	–
C=CCc1ccc(O)c(OC)c1 [EUGENOL]	Not Active	Not Active	Not Active	Not Active	Not Active	–	–	Not Active	–	–
CC(C(=O)O)c1cccc(Oc2ccccc2)c1 (stereo not drawn) [FENOPROFEN]	Not Active	Not Active	Not Active	Not Active	Not Active	–	–	Not Active	–	–
CC(C)(C)NC(=O)[C@H]1CC[C@H]2[C@@H]3CC[C@H]4NC(=O)C=C[C@]4(C)[C@H]3CC[C@]12C [FINASTERIDE]	Not Active	Not Active	Not Active	Not Active	Not Active	–	–	Not Active	–	–
COc1ccc2c3c1O[C@H]1C[C@@H](O)C=C[C@@]31CCN(C)C2 [GALANTAMINE]	Not Active	Not Active	Not Active	Not Active	Not Active	–	–	Not Active	–	–
Nc1ccn([C@@H]2O[C@H](CO)[C@@H](O)C2(F)F)c(=O)n1 [GEMCITABINE]	Not Active	Not Active	Not Active	Not Active	Not Active	–	–	Not Active	–	–
CC(C)=CCC/C(C)=C/CO [GERANIOL]	Not Active	Not Active	Not Active	Not Active	Not Active	–	–	Not Active	–	–
N=C(N)NC(=O)Cc1c(Cl)cccc1Cl [GUANFACINE]	Not Active	Not Active	Not Active	Not Active	Not Active	–	–	Not Active	–	–
Oc1c(Cl)cc(Cl)c(Cl)c1Cc1c(O)c(Cl)cc(Cl)c1Cl [HEXACHLOROPHENE]	Not Active	Not Active	Not Active	–	Not Active	–	–	Not Active	639	361
NNc1nncc2ccccc12 [HYDRALAZINE]	Not Active	Not Active	Not Active	Not Active	Not Active	–	–	Not Active	–	–
CC(=O)[C@@]1(O)CC[C@H]2[C@@H]3CCC4=CC(=O)CC[C@]4(C)[C@H]3CC[C@@]21C [HYDROXYPROGESTERONE]	Not Active	Not Active	Not Active	–	Not Active	–	–	Not Active	4730	2670
COC1=C(OC)C(=O)C(CCCCCCCCCCO)=C(C)C1=O [IDEBENONE]	Not Active	Not Active	Not Active	Not Active	Not Active	–	–	Not Active	–	–
CC(C)NNC(=O)c1ccncc1 [IPRONIAZID]	Not Active	Not Active	Not Active	Not Active	Not Active	–	–	Not Active	–	–
Cc1c(OCC(F)(F)F)ccnc1C[S+]([O-])c1nc2ccccc2[nH]1 (stereo not drawn) [LANSOPRAZOLE]	Not Active	Not Active	Not Active	Not Active	Not Active	–	–	Not Active	–	–
O=c1cc(N2CCOCC2)oc2c(-c3ccccc3)cccc12 [LY-294002]	Not Active	Not Active	Not Active	Not Active	Not Active	–	–	Not Active	–	–
COc1ccc2[nH]cc(CCNC(C)=O)c2c1 [MELATONIN]	Not Active	Not Active	Not Active	Not Active	Not Active	–	–	Not Active	–	–
NC(=O)C[S+]([O-])C(c1ccccc1)c1ccccc1 (stereo not drawn) [MODAFINIL]	Not Active	Not Active	Not Active	Not Active	Not Active	–	–	Not Active	–	–
CCN(CC)CCOCCC1=CCC2CC1C2(C)C (stereo not drawn) [MYRTECAINE]	Not Active	Not Active	Not Active	Not Active	Not Active	–	–	Not Active	–	–
O=C(O)c1cccnc1Nc1cccc(C(F)(F)F)c1 [NIFLUMIC ACID]	Not Active	Not Active	Not Active	Not Active	Not Active	–	–	Not Active	–	–
